One data set concerns colon cancer (HT-29). Put plainly: Antiproliferative MTT assay, HT-29. It counts as cell-based. Conditions: Homo sapiens, HT-29 colon cancer cells, read-out: Antiproliferative activity IC50 ± SEM, HT-29. Here is the method: (§1) The median inhibitory concentration (IC50) and GI50 (mean IC50) for the four cancer cell lines were calculated. Appendix A ^† contains more details. […]
On the technique in general: Tetrazolium assays rely on reduction of a dye to a coloured formazan, in cell work by metabolically active cells.

The test system of data set [1] is four human cancer cell lines (A-549, MCF-7, Panc-1, HT-29). Kind of data set: Antiproliferative MTT assay, mean over the four cancer cell lines. Particulars: Homo sapiens, mean IC50 over A-549, MCF-7, Panc-1, HT-29. Format: cell-based. Here is the method: as §1
Data set [2] can be described thus: Cell viability MTT assay on MCF-10A normal cells. It counts as cell-based. Particulars: human, MCF-10A normal mammary gland epithelial cells, MCF-10A cells, four days of incubation. Here is the method: The viability of new compounds 8a–t was evaluated using the MCF-10A normal human mammary gland epithelial cell line. The cell viability of compounds 8a–t was examined using the MTT assay[36] after four days of incubation with MCF-10A cells. For more details, see Appendix A (ESI file). ^† […]
We evaluated the viability of new compounds 8a–t using the MCF-10A normal human mammary gland epithelial cell line. The cell viability of compounds 8a–t was examined using the MTT assay[36] after four days of incubation with MCF-10A cells.
4.2. Biological evaluation
4.2.1. Cytotoxic activity using MTT Assay and evaluation of IC 50
MTT assay was carried out to study the effect of compounds on mammary epithelial cells (MCF-10A). The medium in which cells were propagated contained Dulbecco's modified Eagle's medium (DMEM)/ Ham's F-12 medium (1:1) supplemented with epidermal growth factor (20 ng/mL), hydrocortisone (500 ng/mL), insulin (10 μg/mL), 2 mM glutamine and 10% foetal calf serum.
After every 2-3 days, the cells were passaged using trypsin ethylenediamine tetra acetic acid (EDTA). The cells were seeded at a density of 10^4 cells mL-1 in flat-bottomed culture plates containing 96 wells each. After 24 h, medium was removed from the plates and the compounds in (in 0.1% DMSO) were added (in 200 μL medium to yield a final concentration of 0.1% v/v) to the wells of plates. A single compound was designated with four wells followed by incubation of plates for 96h at 37°C. After incubation, medium was removed completely from the plates followed by addition of MTT (0.4 mg/mL in medium) to each well and subsequent incubation of plates for 3h. MTT (along with the medium) was removed and DMSO (150μL) was added to each well of the culture plates, followed by vortexing and subsequent measurement of absorbance (at 540 nm) using microplate reader. The data are shown as percentage inhibition of proliferation in comparison with controls containing 0.1% DMSO. […]

The test system of a further data set is lung cancer (A-549). Put plainly: Antiproliferative MTT assay, A-549. It counts as cell-based. Conditions: Homo sapiens, A549, A-549 lung cancer cells, read-out: Antiproliferative activity IC50 ± SEM, A-549. On the procedure: as §1
Data set [3] relates to A-549 cells. Put plainly: Apoptosis induction assay, annexin V/PI, in A-549. Particulars: A-549, annexin V/PI, 24 hours. It counts as cell-based, human. Here is the method: (§2) The impact of compound 8g on cell cycle progression and apoptosis induction was examined in A-549 cells. […] We stained the cell line with PI/annexin V and performed flow cytometry using a BD FACS Caliber.[41] Refer to Appendix A ^† for more details.
A-549 cells was stained with annexin V/PI, cultured for 24 hours, and analyzed them to examine 8g's capacity to cause apoptosis.
Avoid direct exposure to intense light. The point, at which the substrate reaction is stopped, is often determined by the ELISA reader. Many ELISA readers record absorbance only up to 2.0
O.D. Therefore, the color development within individual microwells must be watched by the person running the assay and the substrate reaction stopped before positive wells are no longer properly detectable. […] Results must be read immediately after the Stop Solution is added or within one hour if the microwell strips are stored at 2 - 8°C in the dark. Read absorbance of each microwell on a spectrophotometer using 450 nm as the primary wavelength. […]
Apoptosis was determined by flow cytometry based on the Annexin-V-fluoresce in isothiocyanate (FITC) and propidium iodide (PI) staining kit (BD Pharmingen, San Diego, USA).
(FITC) and propidium iodide (PI) staining kit (BD Pharmingen, San Diego, USA). […] Subsequently, cells were analyzed by flow cytometry (Becton Dickinson, Franklin Lakes, and USA).

Another data set deals with breast cancer (MCF-7). Put plainly: Antiproliferative MTT assay, MCF-7. Particulars: Homo sapiens, MCF7, MCF-7 breast cancer cells, read-out: Antiproliferative activity IC50 ± SEM, MCF-7. Format: cell-based. Here is the method:
as §1

For the next data set, the target named is T1, EGFR (Homo sapiens, UniProt P00533).
T1 construct: 645–1186; His6 (N); made in house; host or cells: Sf-9 insect cells (baculovirus; pBlueBacHis2B / pFASTBacHTc)
Put plainly: EGFR-TK inhibitory assay. It counts as biochemical. Conditions: read-out: EGFR inhibition IC50 ± SEM. On the procedure: Sf-9 cells were infected for 72h for protein expression. […]
centrifugation for 20 min.
Histidine-linked proteins were first eluted with 250 and then […]
using wash buffer. Europium-tagged antiphosphotyrosine antibody (75 µL, 400 ng) was added to each well followed by incubation of 1h and then washing of the plates using buffer. The enhancement solution was added to each well and the signal was recorded at excitation and […]
The autophosphorylation percentage inhibition by compounds was calculated using the following equation: […]

Data set [4] relates to A-549 cells. Kind of data set: Cell cycle analysis by flow cytometry in A-549. Particulars: A-549, IC50 concentration of 8g, 24 hours. Format: cell-based, human.
Description: as §2
The effects of 8g on cell cycle progression and apoptosis induction in A-549 cells were examined. […] We stained the cell line with PI/annexin V and performed flow cytometry using a BD FACS Caliber.[41] […] This means a cell cycle arrest at the G1 transition.
(Flow cytometry measures light scatter and fluorescence of single cells or particles in a stream.)

Data set [5] relates to pancreatic cancer (Panc-1). Kind of data set: Antiproliferative MTT assay, Panc-1. Particulars: Homo sapiens, Panc-1 pancreatic cancer cells, read-out: Antiproliferative activity IC50 ± SEM, Panc-1. It counts as cell-based. Here is the method: as §1

T1 sequence (P00533 669-1210): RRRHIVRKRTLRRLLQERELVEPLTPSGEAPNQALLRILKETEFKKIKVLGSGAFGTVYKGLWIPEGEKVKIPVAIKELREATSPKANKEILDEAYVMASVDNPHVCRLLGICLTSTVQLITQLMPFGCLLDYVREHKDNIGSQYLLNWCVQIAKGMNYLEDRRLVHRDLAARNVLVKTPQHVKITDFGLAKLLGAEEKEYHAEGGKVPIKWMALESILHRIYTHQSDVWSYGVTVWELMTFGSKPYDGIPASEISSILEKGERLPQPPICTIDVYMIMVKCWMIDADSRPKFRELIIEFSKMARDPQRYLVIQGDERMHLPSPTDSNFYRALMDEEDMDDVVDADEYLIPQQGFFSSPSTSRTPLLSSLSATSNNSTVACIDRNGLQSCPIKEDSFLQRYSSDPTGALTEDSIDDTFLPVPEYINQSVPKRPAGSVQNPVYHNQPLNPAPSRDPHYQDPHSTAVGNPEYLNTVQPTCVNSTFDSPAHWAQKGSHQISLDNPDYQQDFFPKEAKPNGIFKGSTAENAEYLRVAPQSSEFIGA

Broadly, the IC50 is the concentration needed to halve the response being measured. By GI50 is commonly meant the concentration that inhibits growth by half. By viability is commonly meant a read-out of living cells in per cent, often relative to untreated cells. Higher therefore signals less harm to the cells. As for `COc1ccc(-n2cc(CSc3nc4ccccc4c(=O)n3-c3ccc(C)cc3)nn2)cc1` [Compound 8g, 2-(((1-(4-Methoxyphenyl)-1H-1,2,3-triazol-4-yl)methyl)thio)-3-(p-tolyl)quinazolin-4(3H)-one], the IC50 in the data set with colon cancer (HT-29) came out at 24 ± 1 nM; in the data set with lung cancer (A-549) it was 22 ± 1 nM; with breast cancer (MCF-7), 20 ± 1 nM; on EGFR, 68 ± 4 nM; in data set [5], 24 ± 1 nM. In addition, the GI50 in data set [1] came out at 22 nM. Also, in data set [2], the viability at 4 days, 50 µM stood at 88%. Further, the Necrosis percentage in the data set on A-549 cells [3] is listed as 4.39%. Moreover, the “Cells in G0/G1 phase (%DIP G1)” value in the data set on A-549 cells [4] is listed as 86%.
For `Cc1ccc(-n2cc(CSc3nc4ccccc4c(=O)n3-c3ccc(C)cc3)nn2)cc1` [Compound 8h, 2-(((1-(p-Tolyl)-1H-1,2,3-triazol-4-yl)methyl)thio)-3-(p-tolyl)quinazolin-4(3H)-one], the IC50 came to 27 ± 1 nM with colon cancer (HT-29); 25 ± 1 nM in the data set on lung cancer (A-549); 22 ± 1 nM in the data set on breast cancer (MCF-7); 74 ± 5 nM on EGFR; 26 ± 1 nM in [5]. For the same compound, halving of growth in data set [1] (GI50) required 25 nM. This compound gave a viability at 4 days, 50 µM in data set [2] of 92%.

Values taken from paper PMC11618052, “Design, synthesis, and antiproliferative activity of new 1,2,3-triazole/quinazoline-4-one hybrids as dual EGFR/BRAF^V600E inhibitors” (RSC Advances, 2024).
